Holding throughout (assay type): physicochemical
Experiment [1] can be described thus: strain-promoted 1,3-dipolar cycloaddition kinetics with benzyl azide (experimental second order rate constants). The note with it: for k2: 1,3-dipolar cycloaddition with benzyl azide 5, acetonitrile, ambient temperatures; for krel.: reaction with benzyl azide, relative to 4b = 1.0; for change of rate of reaction with benzyl azide, in words: relative to the comparator alkyne; for Experimental Rate: CD3CN. From the text:
The reactivity of the novel strained alkyne derivatives disclosed herein were first assessed using benzyl azide 5 as a model substrate (Table 1, model reaction at top). […] When steric hindrance was increased by placing the more bulky isopropyl group at C1, the rate of the reaction slowed to a sixth of that of […]. […] The effects of the heteroatoms in the ring were similarly pronounced. […] For Me-substituted substrates 4a and 4d, the rates slowed to roughly half their unprotected values. While a more electron-poor nitrogen heteroatom is expected to result in a stronger electronic effect and an expected increase in reaction rate, the conflicting effects of bond lengthening and steric repulsion between the Boc and R^1 groups overrides any benefit and results in a net slowing of rate. Similarly, when the homopropargylic oxygen atom was replaced with a Boc-protected nitrogen atom, the rate fell dramatically to an eighteenth of that of the sulfamate (4f). The fastest substrate, 1a, compares favorably to other reported strained alkynes. It is faster than OCT, the exocyclic heteroatom-activated MOFO, and the endocyclic heteroatom-activated alkynes reported by Toomoka et al., supra. The reaction rate of 1a is surpassed only slightly by DIFO.
With the difluorinated SNO-OCT 8a in hand, preliminary kinetic studies were carried out (Table 7) and compared to computed and experimental rates of both the parent SNO-OCTs 4 and 6, as well as 8. A rate enhancement of 13-fold was predicted in moving from the parent SNO-OCT 6 (entry 1, right column) to the difluorinated SNO-OCT 8 (entry 3, right column) in reactions with alkyl azides; this was quite similar to the experimental rate enhancement seen in moving from 4 to 8a of 18× (entries 1 and 3 in the left column).

A short description of experiment [2]: experimental rate comparison of cycloalkynes with diazoacetamide 8 and azidoacetamide 7. The note with it: ratio of rate constants with diazoacetamide and azidoacetamide. The text has this: For these exploratory studies, diazoacetamide 8 (Table 3) and azidoacetamide 7 were chosen because of the increased nucleophilicity of 8 as compared to azide 7 and its ability to survive cellular metabolism. When comparing rate differences with diazoacetamide 8 and azidoacetamide 7 for common cycloalkynes, DIBAC reacted˜5-times faster with the diazoacetamide than the analogous azide in 1:1 CD3CN:D2O. […] At the same time, these compounds provide for complete selectivity that is as of yet lacking in cyclooctynes. It was hypothesized by the present inventors that properly positioned heteroatoms in sulfamate-derived cyclooctynes would lead to an increase in diazo-selective reactivity over azides, thus enabling orthogonal bioconjugation techniques.
The effects of the various heteroatoms on this increased chemoselectivity were investigated computationally. […] In contrast, the ΔΔG‡ is expected to increase, likely due to increased steric repulsion from the bulky Boc-group. This difference in rate provides ˜9:1 selectivity in competition experiments involving 1:1:1 mixtures of diazoacetamide […]:alkyne (4d, 4e). Efforts to improve the selectivity for reaction with 1 were undertaken by examining the effects of both propargylic and homopropargylic heteroatoms in 4.

The nature of experiment [3]: experimental cycloaddition of SNO-OCTs with diazoacetamide. The following applies: dipole diazoacetamide; CD3CN. The text has this:
A rate enhancement of ˜300-fold was predicted in moving from the parent SNO-OCT 6 (entry 2, right column) to the difluorinated SNO-OCT 8 (entry 4, right column) in reactions with alkyl diazaoacetamides. Experimentally, the rate enhancement in moving from 4 to 8a (entries 2 and 4 in the left column) could not be determined using proton NMR spectroscopy to monitor the progress of the reaction. […] While orthogonality was also observed for reactions of 4 and 8a with azides, the selectivity appeared to be lower than that predicted for the diazoalkanes.

Turning to `CC1C#CCCOS(=O)(=O)N1C(=O)OC(C)(C)C` (stereo not drawn) [4d], in experiment [1], the k2 came out at 0.037 M⁻¹ s⁻¹; the krel. is recorded as 1.5; the “change of rate of reaction with benzyl azide, in words” value (“change of rate of reaction” below) was “roughly half”. In experiment [2] (in CD3CN), the “k2 ratio, diazoacetamide:azidoacetamide” value was found to be 5.0.

For “dibenzoazacyclooctyne [DIBAC, reference compound]”, the figures for the “k2 ratio, diazoacetamide:azidoacetamide” value in experiment [2] (CD3CN:D2O = 1:1) and in experiment [2] (in CD3CN) were 6.5 and 2.0, respectively.

As to `CCCCCC1C#CCCOS(=O)(=O)N1C(=O)OC(C)(C)C` (stereo not drawn) [4e], in experiment [1], the k2 is 0.042 M⁻¹ s⁻¹; the krel. is recorded as 1.7; the “change of rate of reaction” value is “slowed slightly”.

Regarding `CCCCCC1C#CCCOS(=O)(=O)N1` (stereo not drawn) [4b], in experiment [1], the krel. was 1.0.

In experiment [1], `CCCCCC1C#CCCN(C(=O)OC(C)(C)C)S(=O)(=O)N1` (stereo not drawn) [4h] yielded a k2 of 0.0014 M⁻¹ s⁻¹ and a krel. of 0.056.

`CC1C#CC(C)NS(=O)(=O)OC1` (stereo not drawn) [4g]: in experiment [1], the k2 was 0.047 M⁻¹ s⁻¹ and the krel. is 1.9.

With `CCCCCC1C#CCCOS(=O)(=O)N1` (stereo not drawn) [compound 4], the “Experimental Rate” value in experiment [3] was found to be 0.27 M⁻¹ s⁻¹.

Regarding `CC(C)C1C#CCCOS(=O)(=O)N1C(=O)OC(C)(C)C` (stereo not drawn) [4f], the “change of rate of reaction” value in experiment [1] was “an eighteenth”.

`CC(C)C1C#CCCOS(=O)(=O)N1` (stereo not drawn) [4c]: in experiment [1], the k2 stood at 0.0040 M⁻¹ s⁻¹; the krel. was found to be 0.16; the “change of rate of reaction” value was “a sixth”.

Consider `[N-]=[N+]=NCc1ccccc1` [compound 5], for which the “Experimental Rate (value in parentheses)” value in experiment [1] (dipole Bn—N3, 2:1 D2O:CD3CN) turned out to be 0.13 M⁻¹ s⁻¹. In experiment [1] (dipole Bn—N3), the “Experimental Rate” value came out at 0.087 M⁻¹ s⁻¹.

As to `CCC1C#CC(F)(F)COS(=O)(=O)N1` (stereo not drawn) [8a], the “Experimental Rate” value in experiment [1] (dipole Bn—N3) amounted to 0.46 M⁻¹ s⁻¹. In addition, the “experimental rate enhancement in moving from 4” value in experiment [1] (reactions with alkyl azides (Bn—N3)) was 18 ×.

With `CC1C#CCCOS(=O)(=O)N1` (stereo not drawn) [4a], in experiment [1], the k2 amounted to 0.066 M⁻¹ s⁻¹ and the krel. was found to be 2.6. Besides, the “k2 ratio, diazoacetamide:azidoacetamide” value in experiment [2] (CD3CN:D2O = 1:1) is listed as 8.5. In addition, in experiment [2] (in CD3CN), the “k2 ratio, diazoacetamide:azidoacetamide” value was determined as 3.0.

Values taken from patent US10676449B2, “Electronically activated strained alkynes” (Wisconsin Alumni Research Foundation, priority 2017, dated 2020).
